Experimental data reported in patent US10624892B2, “Agent against fungal infections” (priority 2015, dated 2020).

Legend:
[1] = tested on: Leveillula taurica; experiment: Treatment of powdery mildew on begonia tuberosa by spray; format: in vivo, Begonia tuberosa hybridum
Protocol: The study was carried out on begonia tuberosa (Begonia tuberosa hybridum), infected with powdery mildew. Powdery mildew affects many plants, including trees and shrubs. Powdery mildew affects chrysanthemums, begonias, and roses; it is manifested in appearance of a white, sometimes darkening spew on green parts of plants. The plant disease is transmitted by spores through the air. The test plants were infected with spores of the fungus (Leveillula taurica) and kept until a white spew appeared on the leaves. Three leaves on each plant were infected. After appearance of the spew, the plants of the control group (3 plants) were isolated from the 3 plants treated with a spray, which is an aqueous solution of substance I-3. The treatment was performed once in a day for 3 and 7 days. After completion of the treatment, the observation over the plants was continued for another 3 weeks. During the observation, an increase in the amount of spew representing the fungal mycelium was registered in the control plants and the number of affected leaves increased, on average, to 7-8, while the spew covered the stems of the plants as well.

[2] = tested on: Aspergillus niger; experiment: Aspergillus pneumonia in immunodeficient mice, aerosol treatment, microbial contamination of the lungs; format: in vivo, white mongrel mice; details: for Number of colonies (in different dilutions), 10^−2: dilution 10^−2, Saburo medium
Protocol: The studies were conducted on white mongrel mice (females, 6-8 weeks) in Rappolovo (Leningrad region), the quarantine period was 2 weeks. To reproduce aspergillus pneumonia of the mouse, in order to create an immunodeficiency, a cyclophosphamide solution (150 mg/kg) was injected once intraperitoneally. Three days later, the mice were injected hydrocortisone (250 mg/kg), intraperitoneally, once. One day after the hydrocortisone administration the mice were infected with a suspension of Aspergillus niger (approximately 3×10^7 cell/ml) intranasally, under ether anesthesia. On the 5th day after infection, 5 animals from each group were taken to study microbial contamination of the lungs (euthanasia in rodents was performed with an overdose of ether). From the lung tissue, homogenates were prepared in which the titer of Aspergillus genus fungi was determined. Observation over the remaining mice was carried out within 14 days after infection for mortality accounting. The test solutions were injected in an aerosol chamber. In the course of the experiment, the following groups of animals were formed: • 1—spray control (K), 3 identical groups (K1, K2, K3). The animals infected with Aspergillus and receiving an aerosol of isotonic sodium chloride solution. • 2—The associate of 5-[3,5-dichloro-2-hydroxybenzylidene)amino]-4-hydroxy-1H-pyrimidin-2-one salt with 1,2,3,4,5-pentahydroxy-6-methylaminohexane, 3 identical groups (E1-3). The animals infected with Aspergillus and receiving an aerosol of 0.1% of the preparation under study. • 3. Aqueous solution of substance I-1 • 4. Aqueous solution of substance I-2 • 5. Aqueous solution of substance I-3 • 6. Aqueous solution of substance I-4 • 7. Aqueous solution of substance I-5 • 8. Aqueous solution of substance I-6 • 9. Aqueous solution of substance I-7. The animals were placed into aerosol chambers (12 l) for a period of 30 minutes, during which 500 ml of air passed through the lungs. As an aerosol generator, an ultrasonic nebulizer OMRON U1 (Japan) was used. To maintain a constant concentration of the aerosol of the preparation in the chamber, a vortex pneumatic generator in pulsed spraying mode was used to obtain a stable aerosol with a particle size of 3 m. The animals were placed into immobilization containers and exposed to the obtained aerosol for 30 minutes once a day for 3 days, starting from the first day after the infection. From the samples of homogenized lung tissues, a number of successive dilutions were prepared, followed by seeding on to Saburo medium.

[3] = tested on: Candida albicans; experiment: Candidamycosis of mammals: intradermal Candida albicans ulceration in rabbits, topical treatment; format: in vivo; details: for Complete cure by day 7: scarring of the lesion by day 7, 0.1% oil (olive oil) solution applied twice a day for 7 days
Protocol: Rabbits were inoculated intradermally with a suspension of a 48-hour Candida albicans culture at a dose of 10,000 fungal cells in […] of a 0.9% sodium chloride solution. […] For the study, a 0.1% oil (olive oil) solution of the 5-[3,5-dichloro-2-hydroxybenzylidene)amino]-4-hydroxy-1H-pyrimidin-2-one salt associate with 1,2,3,4,5-pentahydroxy-6-methylaminohexane and substance I-3 were prepared. Sterile water was used as the control substance. The duration of treatment was 7 days, starting from the 1st day after ulceration. The preparations were applied with a cotton swab twice a day—in the morning and in the evening. The criterion for mycological cure was the absence of the yeast and mycelial forms of Candida, and the criterion for complete cure was the scarring of the lesion by day 7.

[4] = cited from earlier work
[5] = lung homogenate, 5th day after infection, aerosol 30 minutes once a day for 3 days

With `Cc1[nH]c(=O)[nH]c(=O)c1N=Cc1cc(Cl)cc(Cl)c1O.[Na]` [Substance I-3, 2,4-dioxo-5-(2-hydroxy-3,5-dichlorobenzylidene) amino-6-methyl-1,3-pyrimidine sodium salt] the “increase or spread of the fungus to other parts of the plant” value ([1]; aqueous solution spray once in a day for 3 and 7 days, observation for another 3 weeks) was “no increase or spread of the fungus to other parts of the plant was recorded”, the “growth of the fungi when flushed from the leaf and plated on a nutrient medium” value ([1]; flush from treated leaf, nutrient medium) was “no growth of the fungi was recorded” and the “overall antifungal effectiveness among tested agents” value ([2]; conclusion from Table 2) was “most effective antifungal agent”. For the same compound, the “Number of colonies (in different dilutions), 10^−2” value [2, 5] was 2 col, the “Presence of mycelium of fungi in the smear, 5 day” value ([3]; 5 day, 0.1% oil (olive oil) solution applied twice a day) was “no growth” and the “overall effect of treatment” value ([3]; conclusion from Table 3) was “positive effect is achieved”. For the same compound, the “Complete cure by day 7” value [3] was “Achieved”.

For `Cc1[nH]c(=O)[nH]c(=O)c1N=Cc1ccc([N+](=O)[O-])cc1.[Na]` [Substance I-1, 2,4-dioxo-5-(4-nitrobenzylidene)amino-6-methyl-1,3-pyrimidine sodium salt], the “Number of colonies (in different dilutions), 10^−2” value [2, 5] was 5 col.

In the case of `CNCC(O)C(O)C(O)C(O)CO.O=c1nc(O)c(N=Cc2cc(Cl)cc(Cl)c2O)c[nH]1` [associate of 5-[3,5-dichloro-2-hydroxybenzylidene)amino]-4-hydroxy-1H-pyrimidin-2-one salt with 1,2,3,4,5-pentahydroxy-6-methylaminohexane, reference compound], the “solubility in oil solutions” value ([4]; oil solutions) is given as “up to 0.3%”, the solubility in water ([4]; water) is given as no more than 0.4% and the “Number of colonies (in different dilutions), 10^−2” value [2, 5] is given as 12 col. For the same compound, the “Number of colonies (in different dilutions), 10^−4” value ([2]; lung homogenate, 5th day after infection, dilution 10^−4, Saburo medium, aerosol 30 minutes once a day for 3 days) was 2 col and the “Complete cure by day 7” value [3] was “Absent”.
